Measured values as given in patent US20210309978A1, “POLYNUCLEOTIDE SEQUENCE ENCODING A LOCAL SOURCED NOVEL ESTERASE” (ISTANBUL TEKNIK UNIVERSITESI, priority 2018, published 2021).
One block for each molecule: values may come before it.

Legend:
[1] = test system: esterase enzyme; experiment: Effect of metals on enzyme activity; type: biochemical, microflora of Ac1göl (Aci Lake); conditions: for Metal tolerance, This study: the enzyme of the invention in presence of metal ion
[2] = test system: new true lipase isolated through metagenomic approach; conditions: literature enzyme in presence of metal ion; cited from earlier work
[3] = test system: esterase enzyme; experiment: Effects of inhibitors and detergents on enzyme activity; type: biochemical, microflora of Ac1göl (Aci Lake)
[4] = test system: heavy metal-resistant, thermophilic esterase from a Red Sea Brine Pool; conditions: literature enzyme in presence of metal ion; cited from earlier work
[5] = test system: thermophilic and halophilic esterase from Janibacter sp. R02; conditions: literature enzyme in presence of metal ion; cited from earlier work
[6] = test system: Salt-Tolerant Esterase from the Deep-Sea Sediment of the South China Sea; conditions: literature enzyme in presence of metal ion; cited from earlier work
[7] = test system: esterase enzyme; experiment: Effect of solutions (solvents) on enzyme activity; type: biochemical, microflora of Ac1göl (Aci Lake); conditions: for Effect of solutions on activity, Activity (%): 10% solution added into the reaction
Procedure: (§1) 6. […] The final concentration of the enzyme and substrate have been 1 μM and 1 mM respectively and absorbance measurements have been taken at 410 nm. The activity has been calculated by means of the below formula and one unit of activity has been defined as the enzyme amount which produces 1 μmol product in 1 minute.
(§2) Activity (U/L)=[(ΔAbs/t)/(ε*d)]*106*Vt/Vs • ΔAbs=Absorbance change; t=time (minute); ε=extinction coefficient (M−1 cm−1); d=light path (cm); Vt=total reaction volume; Vs=enzyme volume used in reaction.
(§3) Additionally, the effect of different solutions (hexane, chloroform, acetone, dimethyl formamide (DMF), dimethyl sulphoxide (DMSO), 2-propanol, butanol, 1-propanol, ethanol, methanol and glycerol) on the activity and stability of the enzyme have been measured. In the activity tests, 10% solution has been added into the reaction and in the stability tests the enzyme has been incubated for 24 hours in a buffer solution containing 15% and 30% solution.

[8] = test system: esterase enzyme; experiment: Effect of solutions (solvents) on enzyme stability (24 hours incubation); type: biochemical, microflora of Ac1göl (Aci Lake); conditions: for Effect of solutions on stability, Activity (%) 15% Solution: enzyme incubated 24 hours in buffer containing 15% solution; for Effect of solutions on stability, Activity (%) 30% Solution: enzyme incubated 24 hours in buffer containing 30% solution
Procedure: as §1, §2, §3

[9] = test system: esterase enzyme; experiment: Effect of sodium chloride on enzyme activity; type: biochemical, microflora of Ac1göl (Aci Lake)
Procedure: (§4) 6. Standard activity test: Activity has been measured based on the pNP measurement that is obtained by the hydrolysis of the paranitfrophenol (pNP) esters by the enzyme (Winkler and Stuckmann, 1979). The final concentration of the enzyme and substrate have been 1 μM and 1 mM respectively and absorbance measurements have been taken at 410 nm. The activity has been calculated by means of the below formula and one unit of activity has been defined as the enzyme amount which produces 1 μmol product in 1 minute.
as §2
(§5) The effect of sodium chloride on the activity (5%, 10%, 15%, 20% and 25% NaCl) and the stability (10%, 15%, 20% and 25% NaCl) of the enzyme has been determined similarly. The enzyme has been incubated in a buffer solution comprising sodium chloride at the defined amounts for 24 hours during stability tests.

[10] = test system: esterase enzyme; experiment: Effect of sodium chloride on enzyme stability (24 hours incubation); type: biochemical, microflora of Ac1göl (Aci Lake)
Procedure: as §4, §2, §5

Molecule: [Al+3] [Al^3+]
Metal tolerance, This study [1]: 91
Metal tolerance, Glogauer et al, 2011 [2]: 45

Activity (%) (1 mM inh.) [3]: 105.3 ± 2.4%
Activity (%) (5 mM inh.) [3]: 87.7 ± 3.2%
Molecule: Triton X-100

Molecule: [Cl-].[K+] [KCl]
Activity (%) (1 mM metal) [1]: 127.9 ± 3.9%
Activity (%) (5 mM metal) [1]: 98.2 ± 3.4%

Molecule: [Cl][Ni][Cl] [NiCl2]
Activity (%) (1 mM metal) [1]: 110.4 ± 6.1%
Activity (%) (5 mM metal) [1]: 0.5%

Activity (%) (1 mM inh.) [3]: 89.6 ± 1.7%
Activity (%) (5 mM inh.) [3]: 66.5 ± 1.2%
Molecule: O=C(O)CN(CCN(CC(=O)O)CC(=O)O)CC(=O)O [EDTA, ethylene diamine tetraacetic acid]

Molecule: [Zn+2] [Zn^2+]
Metal tolerance, This study [1]: 6
Metal tolerance, Glogauer et al, 2011 [2]: 45
Metal tolerance, Mohamed et al, 2013 [4]: 85
Metal tolerance, Castilla et al, 2017 [5]: 160
Metal tolerance, Zhang et al, 2017 [6]: 25

Molecule: CC(C)O [2-Propanol, 2-propanol]
Effect of solutions on activity, Activity (%) [7]: 21.4 ± 1.6%
Effect of solutions on stability, Activity (%) 15% Solution [8]: 104.3 ± 1.2%
Effect of solutions on stability, Activity (%) 30% Solution [8]: 62.3 ± 4.3%

Molecule: CCCCCCCCCCCCCCCC[N+](C)(C)C.[Br-] [CTAB, cetrimonium bromide]
Activity (%) (1 mM inh.) [3]: 91 ± 6.6%
Activity (%) (5 mM inh.) [3]: 1.3 ± 0.3%

Activity (%) (1 mM inh.) [3]: 85.6 ± 2.9%
Activity (%) (5 mM inh.) [3]: 5.0 ± 0.8%
Molecule: CCCCCCCCCCCCOS(=O)(=O)[O-].[Na+] [SDS, sodium dodecyl sulphate]

Molecule: [Mg+2] [mg^2+]
Metal tolerance, This study [1]: 130
Metal tolerance, Glogauer et al, 2011 [2]: 65
Metal tolerance, Mohamed et al, 2013 [4]: 91
Metal tolerance, Castilla et al, 2017 [5]: 160
Metal tolerance, Zhang et al, 2017 [6]: 97

Activity (%) (1 mM metal) [1]: 130.4 ± 0.4%
Activity (%) (5 mM metal) [1]: 110.3 ± 3.5%
Molecule: O=S(=O)([O-])[O-].[Mn+2] [MnSO4]

Effect of solutions on activity, Activity (%) [7]: 104.2 ± 6.2%
increase of activity ([7]; in the presence of 10% solvents): 4%
Effect of solutions on stability, Activity (%) 15% Solution [8]: 113.3 ± 1.8%
Effect of solutions on stability, Activity (%) 30% Solution [8]: 106.9 ± 3.1%
Molecule: OCC(O)CO [Glycerol, glycerol]

Molecule: [Fe+2] [Fe^2+]
Metal tolerance, This study [1]: 116
Metal tolerance, Glogauer et al, 2011 [2]: 33
Metal tolerance, Castilla et al, 2017 [5]: 55
Metal tolerance, Zhang et al, 2017 [6]: 85

Molecule: CN(C)C=O [DMF, dimethyl formamide]
Effect of solutions on activity, Activity (%) [7]: 33.2 ± 7.0%
Effect of solutions on stability, Activity (%) 15% Solution [8]: 121.3 ± 1.6%
Effect of solutions on stability, Activity (%) 30% Solution [8]: 105.3 ± 1.6%

Molecule: C[S+](C)[O-] [DMSO, dimethyl sulphoxide]
Effect of solutions on activity, Activity (%) [7]: 92%
Effect of solutions on stability, Activity (%) 15% Solution [8]: 106.1 ± 0.9%
Effect of solutions on stability, Activity (%) 30% Solution [8]: 102.2 ± 4.8%

Molecule: [K+] [K^+]
Metal tolerance, This study [1]: 128
Metal tolerance, Glogauer et al, 2011 [2]: 122
Metal tolerance, Castilla et al, 2017 [5]: 90
Metal tolerance, Zhang et al, 2017 [6]: 108

Molecule: ClC(Cl)Cl [Chloroform, chloroform]
Effect of solutions on activity, Activity (%) [7]: 5.1 ± 0.8%
Effect of solutions on stability, Activity (%) 15% Solution [8]: 97.9 ± 1.4%
Effect of solutions on stability, Activity (%) 30% Solution [8]: 100.2 ± 5.6%

Molecule: CC(C)=O [Acetone, acetone]
Effect of solutions on activity, Activity (%) [7]: 36 ± 4.9%
Effect of solutions on stability, Activity (%) 15% Solution [8]: 113.7 ± 2.5%
Effect of solutions on stability, Activity (%) 30% Solution [8]: 85.2 ± 5.6%

Activity (%) (1 mM metal) [1]: 115.7 ± 2.3%
Activity (%) (5 mM metal) [1]: 0.0%
Molecule: O=S(=O)([O-])[O-].[Fe+2] [FeSO4]

Molecule: [Cl-].[Na+] [sodium chloride]
The effect of sodium chloride on activity, Activity (%) ([9]; Concentration 1 %): 100 ± 1.9%
The effect of sodium chloride on activity, Activity (%) ([9]; Concentration 5 %): 90.2 ± 2.1%
The effect of sodium chloride on activity, Activity (%) ([9]; Concentration 10 %): 79.2 ± 5%
The effect of sodium chloride on activity, Activity (%) ([9]; Concentration 15 %): 52 ± 5.3%
The effect of sodium chloride on activity, Activity (%) ([9]; Concentration 20 %): 39.2 ± 6.3%
The effect of sodium chloride on stability, Activity (%) ([10]; Concentration 10.0 %): 100 ± 4.8%
The effect of sodium chloride on stability, Activity (%) ([10]; Concentration 15.0 %): 99 ± 1.8%
The effect of sodium chloride on stability, Activity (%) ([10]; Concentration 20.0 %): 102.7 ± 1%
The effect of sodium chloride on stability, Activity (%) ([10]; Concentration 25.0 %): 101.4 ± 4.5%

Activity (%) (1 mM metal) [1]: 91.2 ± 9.8%
Activity (%) (5 mM metal) [1]: 0.0%
Molecule: O=S(=O)([O-])[O-].O=S(=O)([O-])[O-].O=S(=O)([O-])[O-].[Al+3].[Al+3] [Al2SO4]

Molecule: [Ca+2] [Ca^2+]
Metal tolerance, This study [1]: 130
Metal tolerance, Glogauer et al, 2011 [2]: 73
Metal tolerance, Mohamed et al, 2013 [4]: 95
Metal tolerance, Castilla et al, 2017 [5]: 110
Metal tolerance, Zhang et al, 2017 [6]: 95
